Measured values published in publication PMC7958448, “Bepridil is potent against SARS-CoV-2 in vitro” (Proceedings of the National Academy of Sciences of the …, 2021).
Where two headings read alike, the source gives them in different places.

Key:
[1] = tested on: SARS-CoV-2 in A549/ACE2 cells; experiment: microbe, parasite or virus in culture; assay type: cell-based; conditions: Severe acute respiratory syndrome coronavirus 2, A549-ACE2, 96 h; read-out: EC50 in inhibiting SARS-CoV-2
Ebola virus = conditions: mouse, in vivo, 12 mg/kg; cited from earlier work
[2] = tested on: SARS-CoV-2 in A549/ACE2 cells; assay type: cell-based; conditions: 6 repeats
[3] = tested on: SARS-CoV-2 in Vero E6 cells; assay type: cell-based
[4] = tested on: SARS-CoV-2 in Vero E6 cells; experiment: microbe, parasite or virus in culture; assay type: cell-based; conditions: Severe acute respiratory syndrome coronavirus 2, Vero C1008, 72 h; read-out: EC50 in inhibiting SARS-CoV-2
[5] = biological target: T1, SARS-CoV-2 main protease (Mpro) (Severe acute respiratory syndrome coronavirus 2, UniProt P0DTD1); conditions: 1 mM medicine, relative to control without small molecule
[6] = tested on: SARS-CoV-2 entry into mammalian cell hosts; conditions: cell-based study; read-out: EC50 in inhibiting the SARS-CoV-2 entry; cited from earlier work
[7] = biological target: T1, SARS-CoV-2 main protease (Mpro); experiment: biochemical

## CC(C)COCC(CN(Cc1ccccc1)c1ccccc1)N1CCCC1 (centres unmarked) [Bepridil]
[1]
  EC50: 460 nM
Ebola virus
  protection from Ebola virus infections: 100%
[2]; A549/ACE2, bepridil 6.25 µM
  SARS-CoV-2 induced CPE: No CPE
[2]; A549/ACE2, bepridil 12.5 µM
  SARS-CoV-2 induced CPE: No CPE
[2]; A549/ACE2, bepridil 25 µM
  SARS-CoV-2 induced CPE: No CPE
[2]; A549/ACE2, bepridil 50 µM
  SARS-CoV-2 induced CPE: No CPE
[3]
  SARS-CoV-2 induced CPE: No CPE
[3]; Vero E6, bepridil 6.25 µM, 6 repeats
  SARS-CoV-2 induced CPE: No CPE
[3]; Vero E6, bepridil 25 µM, 6 repeats
  SARS-CoV-2 induced CPE: No CPE
[4]
  EC50: 860 nM

## CCN1CC(CCN2CCOCC2)C(c2ccccc2)(c2ccccc2)C1=O (centres unmarked) [Doxapram]
[5]
  activation of Mpro: > 15%

## CN1CCN(CC(=O)N2c3ccccc3C(=O)Nc3cccnc32)CC1 [Pirenzepine]
[5]
  activation of Mpro: > 15%

## CCOc1ccccc1OC(c1ccccc1)C1CNCCO1 (centres unmarked) [Reboxetine]
[5]
  activation of Mpro: > 15%

## Cc1c(O)cccc1C(=O)N[C@@H](CSc1ccccc1)[C@H](O)CN1C[C@H]2CCCC[C@H]2C[C@H]1C(=O)NC(C)(C)C [Nelfinavir]
[6]
  EC50: 1000 nM

## CCOC(=O)/C=C/[C@H](C[C@@H]1CCNC1=O)NC(=O)[C@@H](CC(=O)[C@@H](NC(=O)c1cc(C)on1)C(C)C)Cc1ccc(F)cc1 [Rupintrivir]
[7]
  Hill slope: 1.4 ± 0.2

## Cc1cccc(C)c1OCC(=O)N[C@@H](Cc1ccccc1)[C@@H](O)C[C@H](Cc1ccccc1)NC(=O)[C@H](C(C)C)N1CCCNC1=O [Lopinavir]
[7]; 50 nM Mpro, 10 µM Sub3, 20% DMSO, mean ± SE, triplicate
  IC50: 486 ± 2 µM
[7]; four-parameter variable slope fit of the IC50 curve
  Hill slope: 29.9 ± 2.4
